Reference: patent publication US9132126B2, “Phenyl-isoxazole derivatives and preparation process thereof” (priority 2011, dated 2015)
Converted amounts (≈) assume the structure as drawn. “And” between values parts separate entries of the source, which are not always exact repeats. Equal entries are not always repeated. Where two headings read alike, the source gives them in different places.

Tests used:
[1] = system: cell (MDCK) infected with an influenza virus (K09); experiment: Cytotoxicity assay using MTT; type: cell-based; details: compound 24 hours
Experimental: (§1) In this experiment, a cell was infected with a virus, and then the virus was directly treated with a compound so as to determine if the virus-infected cell has toxicity. For this, a cell (MDCK) was infected with an influenza virus (K09) for 1 hour, and treated with the compound with different concentrations for 24 hours. Then, the cell was treated with a MTT reagent for 1 hour. After 1 hour, a formazan crystal produced by the MTT reagent was dissolved in DMSO, and the absorbance was measured by an ELISA reader so as to determine CC50.
(§2) measured by MTT assay. A maximum concentration of the compound, at which the number of cells is reduced to half or more compared to that of a control group

[2] = system: H1N1 influenza virus (solomon); experiment: microbe, parasite or virus in culture; type: cell-based
[3] = system: influenza virus (K09) expressing GFP; type: cell-based; design: key: ◯ = effective; X = ineffective
[4] = system: novel influenza virus (B/Field); experiment: microbe, parasite or virus in culture; type: cell-based
[5] = system: novel influenza virus (K09); experiment: microbe, parasite or virus in culture; type: cell-based; details: for EC50: MDCK, 72 h, read-out: Plaque reduction (Experimental Example 2) EC50
[6] = Acute toxicity test through oral administration in a rat; type: in vivo; details: male SD-Rat, single oral administration, 14 days observation; for LD50 at 14 days: Sprague-Dawley (SD), in vivo
Experimental: The acute toxicity of the inventive compound was determined through oral administration in a rat. Since the compound is expected to be orally administered in a clinical situation, an oral administration route was selected. A male rat aged 6 weeks (SD-Rat, 220±30 g) was subjected to quarantine, and acclimated for 1 week under a condition of lighting of 12 hours (08:00˜20:00), and luminance of 150-300 Lux at 22±3° C. at a relative humidity of 50±20%, while being freely fed with feed and water. Each of a control group and an experimental group include 8 rats. The control group was orally administered with 0.5% HPMC, and the experimental group was orally administered with a material (different concentrations) suspended in 0.5% HPMC, by using a sonde in an amount in proportion to the measured weight of each individual.
The concentration of the drug administered to the experimental group was set as 2000 mg/kg (the highest concentration for a single dose administration in a non-clinical test), and 1000 mg/kg, and 500 mg/kg (with a common ratio). For 14 days from drug administration, clinical symptoms were observed while the weight change was measured. Test animals that died during the test were subjected to autopsy, and abnormalities of main organs (heart, liver, lung, spleen, kidney, and large intestine) were observed and recorded. On the last day of the test (on the 14th day from the administration), all individuals were subjected to autopsy, and the changes of the organs caused by a test material were observed and compared to those in the control group. In the control group, no rats had died, and abnormalities were not observed through autopsy.
Each group was orally administered in a concentration of 500 mg/kg, 1000 mg/kg, and 2000 mg/kg. For 14 days from the administration, according to the test method, clinical symptoms were observed. […] Also, in the groups administered in various amounts, no individuals died. […] Further, no abnormal responses were observed, and from the autopsy results, no peculiarities were observed.

[7] = Cytotoxicity assay using MTT; type: cell-based; details: dog, MDCK cells infected with influenza virus (K09), MDCK cell infected with K09; compound 24 hours; read-out: MTT assay (Experimental Example 3) CC50
Experimental: as §1, §2

[8] = Influenza A virus, Solomon (H1N1), read-out: EC50

Row | SMILES | MTT assay (Experimental Example 3) CC50 [1] | SI value [2] | EC50 ([2]; Solomon (H1N1)) [µg/mL] | GFP reduction (Experimental Example 1) effect [3] | SI value [4] | EC50 ([4]; B/Field) | Plaque reduction (Experimental Example 2) EC50 [5] [µg/mL] | SI value K09 [5] | LD50 [6] | CC50 at 24 h [7] [µg/mL] | EC50 [2, 8] [µg/mL] | SI value ([2]; Solomon (H1N1), CC50/EC50) | SI value ([4]; B/Field, CC50/EC50) | EC50 ([4]; unidentified influenza virus) [µg/mL] | EC50 [5] [µg/mL] | LD50 at 14 days [6] [mg/kg] | SI value K09 ([5]; K09, CC50/EC50) | Plaque reduction (Experimental Example 2) EC50 ([5]; K09, MDCK cell, 72 hours) [µg/mL]
1 | COc1ccccc1N1CCN(C(=O)c2c(-c3ccccc3C(F)(F)F)noc2C)CC1 [Example 4] | 78.12 to 156.25 µg/mL and 78.125 to 156.25 µg/mL | 6.25 to 12.5 | 12.5 (≈ 28.1 µM) | ◯ | 1.563> | 50< μg/ml | 12.5 to 25 | 3.125 to 12.5 | 2,000< mg/kg |  |  |  |  |  |  |  |  | 
2 | Cc1onc(-c2cccc(F)c2)c1C(=O)N1CCN(c2ccc(Cl)c(Cl)c2)CC1 [Example 11, (4-(3,4-dichlorophenyl)piperazine-1-yl)(3-(3-fluorophenyl)-5-methylisoxazol-4-yl)methanone] |  |  |  | ◯ |  |  |  |  |  | 287 to 625 (≈ 661 to 1440 µM) | 0.087 to 0.199 (≈ 0.2 to 0.458 µM) | 1442.211 to 7183.908 | 67.529 to 147.058 | 4.25 (≈ 9.79 µM) | < 0.16 | > 2000 |  | 
3 | COc1cccc(N2CCN(C(=O)c3c(-c4cccc(F)c4)noc3C)CC2)c1 [Example 12, (3-(3-fluorophenyl)-5-methylisoxazol-4-yl)(4-(3-methoxyphenyl)piperazine-1-yl)methanone] |  |  |  | ◯ |  |  |  |  |  | 78.1 to 156 (≈ 198 to 395 µM) | 0.781 (≈ 1.98 µM) | 100.032 to 200.064 |  | > 50 | 3.12 (≈ 7.9 µM) | > 2000 | 25 to 50 | 
4 | Cc1onc(-c2cccc(F)c2)c1C(=O)N1CCN(c2ccccc2O)CC1 [Example 16, (3-(3-fluorophenyl)-5-methylisoxazol-4-yl)(4-(2-hydroxyphenyl)piperazine-1-yl)methanone] | 78.125 µg/mL |  |  | ◯ |  |  |  |  |  | 78.1 (≈ 205 µM) | 0.097 to 0.195 (≈ 0.254 to 0.511 µM) | 400.641 to 805.412 | 3.125 | 25 (≈ 65.5 µM) | 0.39 (≈ 1.02 µM) | > 2000 | 200.321 | 
5 | Cc1onc(-c2ccccc2OC(F)(F)F)c1C(=O)N1CCN(c2ccc(Cl)c(Cl)c2)CC1 [Example 35, (4-(3,4-dichlorophenyl)piperazine-1-yl)(5-methyl-3-(2-(trifluoromethoxy)phenyl)isoxazol-4-yl)methanone] |  |  |  | ◯ |  |  |  |  |  | 312 to 625 (≈ 625 to 1250 µM) | 0.097 to 0.195 (≈ 0.194 to 0.39 µM) | 1602.564 to 6443.298 | 50 to 100 | 6.25 (≈ 12.5 µM) | 0.395 to 0.781 (≈ 0.79 to 1.56 µM) | > 2000 |  | 
6 | COc1cccc(N2CCN(C(=O)c3c(-c4ccccc4OC(F)(F)F)noc3C)CC2)c1 [Example 36] | 500< μg/ml |  |  | ◯ |  |  |  |  |  |  |  |  |  |  |  |  | 320< | 1.56
7 | COc1cccc(N2CCN(C(=O)c3c(-c4ccccc4Cl)noc3N)CC2)c1 [Example 60, (5-amino-3-(2-chlorophenyl)isoxazol-4-yl)(4-(3-methoxyphenyl)piperazine-1-yl)methanone] |  |  |  | ◯ |  |  |  |  |  | > 500 | 0.053 to 0.094 (≈ 0.128 to 0.228 µM) |  | 80< | 6.25 (≈ 15.1 µM) | 0.195 (≈ 0.473 µM) | > 2000 |  | 
8 | Nc1onc(-c2ccccc2OC(F)(F)F)c1C(=O)N1CCN(c2ccc(Cl)c(Cl)c2)CC1 [Example 83] | 150.3 to 189.64 µg/mL |  |  | ◯ |  |  |  |  | 2,000< mg/kg |  |  |  |  |  |  |  | 100.2 to 291.75 | 0.65 to 1.5
9 | COc1cccc(N2CCN(C(=O)c3c(-c4ccccc4C(F)(F)F)noc3N)CC2)c1 [Example 92] | 14.62 to 33.52 µg/mL |  |  | ◯ |  |  |  |  |  |  |  |  |  |  |  |  | 0.32 to 1.59 | 21 to 45
10 | Nc1onc(-c2ccc(OC(F)(F)F)cc2)c1C(=O)N1CCN(c2ccc(Cl)c(Cl)c2)CC1 [Example 99] | 14.62 to 33.52 µg/mL |  |  | ◯ |  |  |  |  |  |  |  |  |  |  |  |  | 0.32 to 1.59 | 21 to 45
11 | CCOC(=O)C1CCN(C(=O)c2c(-c3ccccc3OC(F)(F)F)noc2N)CC1 [Example 124] | 312.5 µg/mL | 50 | 6.25 (≈ 14.6 µM) | ◯ | 6.25> | 50< μg/ml | 3.125 to 6.25 | 50 to 100 | 2,000< mg/kg |  |  |  |  |  |  |  |  | 
12 | CCOC(=O)C1=C[C@@H](OC(CC)CC)[C@H](NC(C)=O)[C@@H](N)C1 [Oseltamivir, reference compound] |  |  |  | X |  |  |  |  |  | 625 to 1250 (≈ 2000 to 4000 µM) | 3.12 to 6.25 (≈ 10 to 20 µM) | 100 to 400 | 200 to 100 | 6.25 (≈ 20 µM) | 0.391 (≈ 1.25 µM) | > 2000 |  | 
